Measured values: ChEMBL document CHEMBL1201862, “PubChem BioAssay data set” (2004)
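Results reflect a 48-hour exposure of cells in 96-well plates to compound at five concentrations. At the GI50, growth is halved.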 Active and inactive are the calls of the source. Rule as the data show it: active = GI50 up to about 1.1 µM and inactive = higher.

Legend:
Assay in all cases: NCI anticancer screen, dose series, 48 h
Malme-3M = system: Malme-3M
OVCAR-5 = system: OVCAR-5
RXF 393 = system: RXF 393
SK-OV-3 = system: SK-OV-3
A549 = system: A549
CAKI-1 = system: CAKI-1
SK-MEL-28 = system: SK-MEL-28
DU-145 = system: DU-145
HL-60 = system: HL-60
HCT-15 = system: HCT-15
U-251 = system: U-251
SF-268 = system: SF-268
SK-MEL-2 = system: SK-MEL-2
KM12 = system: KM12
HCC 2998 = system: HCC 2998
SF-539 = system: SF-539
OVCAR-4 = system: OVCAR-4
SN12C = system: SN12C
MDA-MB-231 = system: MDA-MB-231

Structure (SMILES)	GI50 (Malme-3M)	GI50 (OVCAR-5)	GI50 (RXF 393)	GI50 (SK-OV-3)	GI50 (A549)	GI50 (CAKI-1)	GI50 (SK-MEL-28)	GI50 (DU-145)	GI50 (HL-60)	GI50 (HCT-15) [µM]	GI50 (U-251)	GI50 (SF-268)	GI50 (SK-MEL-2)	GI50 (KM12)	GI50 (HCC 2998)	GI50 (SF-539)	GI50 (OVCAR-4)	GI50 (SN12C)	GI50 (MDA-MB-231)
CN1CSC(=S)N(c2cccc(C(F)(F)F)c2)C1	18.7 µM (inactive)	18.6 µM (inactive)	37.2 µM (inactive)	29.4 µM (inactive)	24.3 µM (inactive)	26.4 µM (inactive)	23.1 µM (inactive)	41.9 µM (inactive)	25.5 µM (inactive)	18.7	32 µM (inactive)	23.1 µM (inactive)	21.3 µM (inactive)	22.4 µM (inactive)	18.6 µM (inactive)	20.7 µM (inactive)	19.3 µM (inactive)	36.1 µM (inactive)	–
COc1cc2c(c(O)c1OC)C(=O)[C@@H]1CCC(=O)N1C2c1ccccc1 (stereo partly drawn)	> 100 µM (inactive)	> 100 µM (inactive)	–	> 100 µM (inactive)	59 µM (inactive)	> 100 µM (inactive)	> 100 µM (inactive)	> 100 µM (inactive)	45.5 µM (inactive)	> 100	63.1 µM (inactive)	> 100 µM (inactive)	> 100 µM (inactive)	67.5 µM (inactive)	> 100 µM (inactive)	> 100 µM (inactive)	> 100 µM (inactive)	> 100 µM (inactive)	–
COC(=O)/C(=N\NC(N)=O)C(C(=O)C(=O)Nc1ccccc1OC)c1nc2ccc([N+](=O)[O-])cc2nc1O (stereo not drawn)	> 100 µM (inactive)	> 100 µM (inactive)	> 100 µM (inactive)	> 100 µM (inactive)	> 100 µM (inactive)	> 100 µM (inactive)	> 100 µM (inactive)	–	> 100 µM (inactive)	> 100	> 100 µM (inactive)	> 100 µM (inactive)	> 100 µM (inactive)	58.1 µM (inactive)	> 100 µM (inactive)	> 100 µM (inactive)	53 µM (inactive)	> 100 µM (inactive)	> 100 µM (inactive)
COC(=O)C1=C(C)C(=O)[C@]23C(CCCC[C@H]12)C(=O)[C@H](C(=O)OC)C3C (stereo partly drawn)	> 100 µM (inactive)	> 100 µM (inactive)	–	> 100 µM (inactive)	> 100 µM (inactive)	> 100 µM (inactive)	> 100 µM (inactive)	> 100 µM (inactive)	> 100 µM (inactive)	> 100	> 100 µM (inactive)	> 100 µM (inactive)	–	> 100 µM (inactive)	> 100 µM (inactive)	> 100 µM (inactive)	> 100 µM (inactive)	> 100 µM (inactive)	> 100 µM (inactive)
Cc1cc(-c2c(Br)cc(C(=O)O)n2C)on1	> 100 µM (inactive)	> 100 µM (inactive)	–	> 100 µM (inactive)	> 100 µM (inactive)	> 100 µM (inactive)	> 100 µM (inactive)	> 100 µM (inactive)	> 100 µM (inactive)	> 100	> 100 µM (inactive)	> 100 µM (inactive)	> 100 µM (inactive)	> 100 µM (inactive)	–	> 100 µM (inactive)	> 100 µM (inactive)	> 100 µM (inactive)	> 100 µM (inactive)
C[C@]12CCC(O)CC1=CC[C@@H]1[C@@H]2CC[C@]2(C)C(=O)[C@H](n3ccnc3)C[C@@H]12 (stereo partly drawn)	> 100 µM (inactive)	> 100 µM (inactive)	> 100 µM (inactive)	–	91.4 µM (inactive)	> 100 µM (inactive)	79.4 µM (inactive)	> 100 µM (inactive)	11.6 µM (inactive)	> 100	61.9 µM (inactive)	> 100 µM (inactive)	27 µM (inactive)	38.9 µM (inactive)	–	58.6 µM (inactive)	89.1 µM (inactive)	> 100 µM (inactive)	> 100 µM (inactive)
OC1(c2ccccc2)CC2CCC(C1)N2CCCC1(c2ccc(F)cc2)OCCO1 (stereo not drawn)	98.4 µM (inactive)	79.3 µM (inactive)	59.7 µM (inactive)	> 100 µM (inactive)	> 100 µM (inactive)	> 100 µM (inactive)	36.1 µM (inactive)	> 100 µM (inactive)	6.78 µM (inactive)	> 100	> 100 µM (inactive)	> 100 µM (inactive)	> 100 µM (inactive)	–	–	> 100 µM (inactive)	> 100 µM (inactive)	> 100 µM (inactive)	> 100 µM (inactive)
Cc1ncn(-c2ccccc2O)c1C	> 100 µM (inactive)	> 100 µM (inactive)	> 100 µM (inactive)	> 100 µM (inactive)	> 100 µM (inactive)	> 100 µM (inactive)	> 100 µM (inactive)	> 100 µM (inactive)	> 100 µM (inactive)	> 100	> 100 µM (inactive)	> 100 µM (inactive)	> 100 µM (inactive)	> 100 µM (inactive)	–	> 100 µM (inactive)	> 100 µM (inactive)	> 100 µM (inactive)	> 100 µM (inactive)
CCCC1C(=O)Nc2cccc3ncn(c23)C1=O (stereo not drawn)	> 100 µM (inactive)	> 100 µM (inactive)	> 100 µM (inactive)	> 100 µM (inactive)	> 100 µM (inactive)	> 100 µM (inactive)	> 100 µM (inactive)	> 100 µM (inactive)	> 100 µM (inactive)	> 100	> 100 µM (inactive)	> 100 µM (inactive)	> 100 µM (inactive)	> 100 µM (inactive)	–	> 100 µM (inactive)	> 100 µM (inactive)	> 100 µM (inactive)	> 100 µM (inactive)
CC(=O)NC1=C(NCCC(C)C)C(=O)c2ccccc2C1=O	45.9 µM (inactive)	–	> 50 µM (inactive)	> 50 µM (inactive)	> 50 µM (inactive)	–	> 50 µM (inactive)	–	> 50 µM (inactive)	> 50	> 50 µM (inactive)	> 50 µM (inactive)	> 50 µM (inactive)	> 50 µM (inactive)	> 50 µM (inactive)	> 50 µM (inactive)	> 50 µM (inactive)	> 50 µM (inactive)	–
COc1ccc(/C=c2/sc3n(c2=O)NC2(CCCCC2)NN=3)cc1	> 100 µM (inactive)	> 100 µM (inactive)	> 100 µM (inactive)	> 100 µM (inactive)	> 100 µM (inactive)	> 100 µM (inactive)	> 100 µM (inactive)	–	–	–	> 10 µM (inactive)	> 100 µM (inactive)	> 100 µM (inactive)	> 100 µM (inactive)	> 100 µM (inactive)	> 100 µM (inactive)	> 100 µM (inactive)	> 100 µM (inactive)	–
CN(C)S(=O)(=O)c1ccc(Nc2ccc(O)c3c2C(=O)c2c([N+](=O)[O-])ccc(O)c2C3=O)cc1	57.4 µM (inactive)	> 100 µM (inactive)	> 100 µM (inactive)	> 100 µM (inactive)	> 100 µM (inactive)	> 100 µM (inactive)	> 100 µM (inactive)	> 100 µM (inactive)	> 100 µM (inactive)	> 100	> 100 µM (inactive)	> 100 µM (inactive)	> 100 µM (inactive)	> 100 µM (inactive)	–	–	> 100 µM (inactive)	> 100 µM (inactive)	91.2 µM (inactive)
COC(=O)C1=CC2OC1(C)C1(CC1)C2=O (stereo not drawn)	11.7 µM (inactive)	23.8 µM (inactive)	15.5 µM (inactive)	76.9 µM (inactive)	24.3 µM (inactive)	16 µM (inactive)	–	–	4.02 µM (inactive)	15.9	> 100 µM (inactive)	20.3 µM (inactive)	> 10 µM (inactive)	20.6 µM (inactive)	18.3 µM (inactive)	17.6 µM (inactive)	11.6 µM (inactive)	16.6 µM (inactive)	–
CCOC(=O)C12OC(OCC)(CC1(OCC)OCC)C1(CC1)C2=O (stereo not drawn)	> 100 µM (inactive)	> 100 µM (inactive)	–	> 100 µM (inactive)	> 100 µM (inactive)	> 100 µM (inactive)	> 100 µM (inactive)	> 100 µM (inactive)	–	> 100	> 100 µM (inactive)	> 100 µM (inactive)	> 100 µM (inactive)	> 100 µM (inactive)	> 100 µM (inactive)	> 100 µM (inactive)	> 100 µM (inactive)	> 100 µM (inactive)	> 100 µM (inactive)
COc1ccc2c(c1)OCC1Cc3cc4c(cc3OC21)OCO4 (stereo not drawn)	54.1 µM (inactive)	60.7 µM (inactive)	–	37.2 µM (inactive)	38.8 µM (inactive)	47 µM (inactive)	–	56.4 µM (inactive)	–	30.4	42.6 µM (inactive)	55.7 µM (inactive)	30 µM (inactive)	31.8 µM (inactive)	44.6 µM (inactive)	39.6 µM (inactive)	–	28.4 µM (inactive)	> 100 µM (inactive)
CCOC(=O)c1cc(-c2cc(OC)c(OC)c([N+](=O)[O-])c2)c([N+](=O)[O-])n1C	8.02 µM (inactive)	> 10 µM (inactive)	9.59 µM (inactive)	–	> 10 µM (inactive)	–	–	–	3.37 µM (inactive)	4.58	4.26 µM (inactive)	> 10 µM (inactive)	> 10 µM (inactive)	4 µM (inactive)	3.26 µM (inactive)	8.32 µM (inactive)	> 10 µM (inactive)	6.7 µM (inactive)	–
CCCCCCCCCCCCCCCCOc1ccc(/C=C/C2=[N+](CCCl)CCO2)cc1	> 100 µM (inactive)	> 100 µM (inactive)	–	> 100 µM (inactive)	> 100 µM (inactive)	> 100 µM (inactive)	> 100 µM (inactive)	> 100 µM (inactive)	12 µM (inactive)	> 100	32.9 µM (inactive)	–	> 100 µM (inactive)	> 100 µM (inactive)	> 100 µM (inactive)	> 100 µM (inactive)	> 100 µM (inactive)	> 100 µM (inactive)	20.1 µM (inactive)
